In US20230086702A1, “SUBSTITUTED 2-AMINO-PYRAZOLYL-[1,2,4]TRIAZOLO[1,5A]PYRIDINE DERIVATIVES AND USE THEREOF” (The Johns Hopkins University, priority 2019, published 2023):

How the values were obtained:
DLK = target: T1, DLK (Homo sapiens, UniProt Q12852); assay: DLK biochemical assay (TR-FRET, MKK7 phosphorylation)
T1 construct: 10 nM DLK, catalytic domain, Carna Biosiences; purchased Carna Biosciences ('Carna Biosiences' [sic])
T1 sequence (Q12852 125-366 limits assumed): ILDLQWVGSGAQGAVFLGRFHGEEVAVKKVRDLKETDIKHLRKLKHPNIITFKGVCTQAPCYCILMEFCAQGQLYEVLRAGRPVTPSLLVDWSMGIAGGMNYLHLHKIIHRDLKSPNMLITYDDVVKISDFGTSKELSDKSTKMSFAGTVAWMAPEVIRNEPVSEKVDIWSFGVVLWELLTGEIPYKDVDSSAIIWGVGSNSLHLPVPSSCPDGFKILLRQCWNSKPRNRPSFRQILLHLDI
Description: (§1) DLK assay is a biochemical assay format designed to screen for inhibitors of DLK. Enzymatic activity of DLK is measured by monitoring phosphorylation of the physiological substrate MKK7 (MAP2K7, Dual specificity mitogen-activated protein kinase kinase 7). Phosphorylation is detected by a TR-FRET system whereby His-tagged MKK7 is labeled by a XL665-labeled anti-His antibody (FRET acceptor, emission 665 nm). DLK phosphorylates MKK7 at T275/S277, which is detected by an Eu-labeled anti-phospho-MKK7 (T275/S277) antibody (FRET donor, excitation 340 nm). Phosphorylation of MKK7 results in an increased TR-FRET signal (Ratio XL665-channel/Eu-channel) and inhibition of enzymatic activity of DLK decreases the TR-FRET signal.
Assay Protocol for 1536 MTP format: test compounds are predispensed (60 nl) in test plates; +3 μl DLK solution (10 nM DLK, catalytic domain, Carna Biosiences, 0.6 mM DTT in assay buffer); +2 μl substrate solution (15 nM MKK7, LDB; 60 μM ATP; 0.4 mM DTT in assay buffer); 90 min incubation at RT; +2 μl detection mix (5 nM XL665-labeled anti-His antibody, Cisbio; 0.1 nM Eu-labeled anti-phospho-MKK7 (T275/S277), Cisbio/Millipore in detection buffer); 16 h incubation at 37° C.; endpoint measurement BMG (HTRF).
(§2) Assay Protocol for 384 low volume MTP format: 1 μl of test compounds is pipetted into test plate; +5 μl DLK solution (10 nM DLK, catalytic domain, Carna Biosiences in assay buffer); +5 μl substrate solution (15 nM MKK7, LDB; 60 μM ATP, in assay buffer); 90 min incubation at RT; +9 μl detection mix (20 nM XL665-labeled anti-His antibody, Cisbio; 0.4 nM Eu-labeled anti-phospho-MKK7 (T275/S277), Cisbio/Millipore in detection buffer); 16 h incubation at 4° C.; endpoint measurement BMG (HTRF).
(§3) All indicated concentrations final concentrations.
(§4) Assay buffer (384 format): 50 mM Hepes pH 7.5, 10 mM MgCl2, 1 mM EGTA, 1 mM DTT, 0.01% Triton X-100, 0.01% BSA, 1:500 Smart Block.
(§5) Detection buffer: 25 mM Tris/HCl pH 7.5, 100 mM EDTA, 100 mM NaCl, 200 mM KF, 0.01% Tween 20, 1:500 Smart Block.

LZK = target: T2, LZK (Homo sapiens, UniProt O43283); assay: LZK biochemical assay (TR-FRET, MKK7 phosphorylation)
T2 construct: 10 nM LZK, catalytic domain, Carna Biosiences in assay buffer; purchased Carna Biosciences ('Carna Biosiences' [sic])
T2 sequence (O43283 168-409 limits assumed): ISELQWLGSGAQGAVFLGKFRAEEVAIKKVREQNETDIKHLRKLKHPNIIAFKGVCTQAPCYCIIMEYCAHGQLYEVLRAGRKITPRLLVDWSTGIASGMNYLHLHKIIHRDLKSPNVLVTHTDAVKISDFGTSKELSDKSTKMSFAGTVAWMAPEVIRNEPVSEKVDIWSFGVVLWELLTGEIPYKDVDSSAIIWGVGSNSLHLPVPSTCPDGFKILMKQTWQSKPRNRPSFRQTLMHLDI
Description: as §1, with “LZK” for “DLK”, “LZK.” for “DLK.”, “T275/S277” for “T275/S277,”
as §2, with “compound” for “compounds”, “LZK” for “DLK”, “LZK,” for “DLK,”, “15” for “60”, “+5” for “+9”, “32°” for “4°”
as §3, §4, §5

SMILES | IC50 (DLK) [nM] | IC50 (LZK) [nM]
CC[C@@H](c1ccccc1)n1cc(-c2cc(-c3cnn(C(C)C(F)(F)F)c3)c3nc(N)nn3c2)cn1 (mixture of isomers) [II-94, 6-{1-[(15)-1-Phenylpropyl]-1H-pyrazol-4-yl}-8-[1-(1,1,1-trifluoropropan-2-yl)-1H-pyrazol-4-yl][1,2,4]triazolo[1,5-a]pyridin-2-amine] | 22 | 200
CCC(c1ccc(C(F)(F)F)nc1)n1cc(-c2cc(-c3cc(CO)ccc3Cl)c3nc(N)nn3c2)cn1 (racemic) [II-1, {3-[2-Amino-6-(1-{1-[6-(trifluoromethyl)pyridin-3-yl]propyl}-1H-pyrazol-4-yl)[1,2,4]triazolo[1,5-a]pyridin-8-yl]-4-chlorophenyl}methanol] | 6.3 | 2.3
Nc1nc2c(-c3cc(CO)ccc3Cl)cc(-c3cnn(C(c4ccc(C(F)(F)F)nc4)C4CCOCC4)c3)cn2n1 (racemic) [II-4, {3-[2-Amino-6-(1-{tetrahydro-2H-pyran-4-yl[6-(trifluoromethyl)pyridin-3-yl]methyl}-1H-pyrazol-4-yl)[1,2,4]triazolo[1,5-a]pyridin-8-yl]-4-chlorophenyl}methanol] | 7 | 5.9
CCC(c1ccc(C(F)(F)F)nc1)n1cc(-c2cc(-c3cccc(C(C)(C)O)c3)c3nc(N)nn3c2)cn1 (racemic) [II-7, 2-{3-[2-Amino-6-(1-{1-[6-(trifluoromethyl)pyridin-3-yl]propyl}-1H-pyrazol-4-yl)[1,2,4]triazolo[1,5-a]pyridin-8-yl]phenyl}propan-2-ol] | 0.8 | 3.3
CC(C)(O)c1cccc(-c2cc(-c3cnn(C(c4ccc(C(F)(F)F)nc4)C4CCOCC4)c3)cn3nc(N)nc23)c1 (racemic) [II-10, 2-{3-[2-Amino-6-(1-{tetrahydro-2H-pyran-4-yl[6-(trifluoromethyl)pyridin-3-yl]methyl}-1H-pyrazol-4-yl)[1,2,4]triazolo[1,5-a]pyridin-8-yl]phenyl}propan-2-ol] | 0.7 | 0.9
CS(=O)(=O)c1cccc(-c2cc(-c3cnn(C(c4ccc(C(F)(F)F)nc4)C4CCOCC4)c3)cn3nc(N)nc23)c1 (racemic) [II-13, 8-[3-(Methylsulfonyl)phenyl]-6-(1-{tetrahydro-2H-pyran-4-yl[6-(trifluoromethyl)pyridin-3-yl]methyl}-1H-pyrazol-4-yl)[1,2,4]triazolo[1,5-a]pyridin-2-amine] | 0.7 | 1.8
CCS(=O)(=O)c1cccc(-c2cc(-c3cnn(C(c4ccc(C(F)(F)F)nc4)C4CCOCC4)c3)cn3nc(N)nc23)c1 (racemic) [II-16, 8-[3-(Ethylsulfonyl)phenyl]-6-(1-{tetrahydro-2H-pyran-4-yl[6-(trifluoromethyl)pyridin-3-yl]methyl}-1H-pyrazol-4-yl)[1,2,4]triazolo[1,5-a]pyridin-2-amine] | 1.1 | 3.5
Nc1nc2c(-c3cccc(S(=O)(=O)C(F)(F)F)c3)cc(-c3cnn(C(c4ccc(C(F)(F)F)nc4)C4CCOCC4)c3)cn2n1 (racemic) [II-19, 6-(1-{Tetrahydro-2H-pyran-4-yl[6-(trifluoromethyl)pyridin-3-yl]methyl}-1H-pyrazol-4-yl)-8-{3-[(trifluoromethyl)sulfonyl]phenyl}[1,2,4]triazolo[1,5-a]pyridin-2-amine] | 17 | 45
CN(C)c1cccc(-c2cc(-c3cnn(C(c4ccc(C(F)(F)F)nc4)C4CCOCC4)c3)cn3nc(N)nc23)c1 (racemic) [II-22, 8-[3-(Dimethylamino)phenyl]-6-(1-{tetrahydro-2H-pyran-4-yl[6-(trifluoromethyl)pyridin-3-yl]methyl}-1H-pyrazol-4-yl)[1,2,4]triazolo[1,5-a]pyridin-2-amine] | 2.2 | 6.6
CCC(c1ccc(C(F)(F)F)nc1)n1cc(-c2cc(-c3ccnc(OC(F)F)c3)c3nc(N)nn3c2)cn1 (racemic) [II-25, 8-[2-(Difluoromethoxy)pyridin-4-yl]-6-(1-{1-[6-(trifluoromethyl)pyridin-3-yl]propyl}-1H-pyrazol-4-yl)[1,2,4]triazolo[1,5-a]pyridin-2-amine] | 130 | 82
CC(C)C(c1ccc(C(F)(F)F)nc1)n1cc(-c2cc(-c3ccnc(C(F)(F)F)c3)n3nc(N)nc3c2)cn1 (racemic) [II-28, 7-(1-{2-Methyl-1-[6-(trifluoromethyl)pyridin-3-yl]propyl}-1H-pyrazol-4-yl)-5-[2-(trifluoromethyl)pyridin-4-yl][1,2,4]triazolo[1,5-a]pyridin-2-amine] | 28 | 27
CCC(c1ccc(C(F)(F)F)nc1)n1cc(-c2cc(-c3ccnc(C4(F)CC4)c3)n3nc(N)nc3c2)cn1 (racemic) [II-31, 5-[2-(1-Fluorocyclopropyl)pyridin-4-yl]-7-(1-{1-[6-(trifluoromethyl)pyridin-3-yl]propyl}-1H-pyrazol-4-yl)[1,2,4]triazolo[1,5-a]pyridin-2-amine] | 26 | 6.1
Nc1nc2cc(-c3cnn(C(c4ccc(C(F)(F)F)nc4)C4CCOCC4)c3)cc(-c3ccnc(C(F)(F)F)c3)n2n1 (racemic) [II-34, 7-(1-{Tetrahydro-2H-pyran-4-yl[6-(trifluoromethyl)pyridin-3-yl]methyl}-1H-pyrazol-4-yl)-5-[2-(trifluoromethyl)pyridin-4-yl][1,2,4]triazolo[1,5-a]pyridin-2-amine] | 15 | 7.1
CCC(c1ccc(C(F)(F)F)nc1)n1cc(-c2cc(-c3ccc(C(F)(F)F)nc3)c3nc(N)nn3c2)cn1 (racemic) [II-37, 8-[6-(Trifluoromethyl)pyridin-3-yl]-6-(1-{1-[6-(trifluoromethyl)pyridin-3-yl]propyl}-1H-pyrazol-4-yl)[1,2,4]triazolo[1,5-a]pyridin-2-amine] | 46 | 74
CC(C)C(c1ccc(C(F)(F)F)nc1)n1cc(-c2cc(-c3ccc(C(F)(F)F)nc3)c3nc(N)nn3c2)cn1 (racemic) [II-40, 6-(1-{2-Methyl-1-[6-(trifluoromethyl)pyridin-3-yl]propyl}-1H-pyrazol-4-yl)-8-[6-(trifluoromethyl)pyridin-3-yl][1,2,4]triazolo[1,5-a]pyridin-2-amine] | 44 | 120
CC(C)C(c1ccc(C(F)(F)F)nc1)n1cc(-c2cc(-c3ccc(C4CC4)nc3)c3nc(N)nn3c2)cn1 (racemic) [II-43, 8-(6-Cyclopropylpyridin-3-yl)-6-(1-{2-methyl-1-[6-(trifluoromethyl)pyridin-3-yl]propyl}-1H-pyrazol-4-yl)[1,2,4]triazolo[1,5-a]pyridin-2-amine] | 4.2 | 26
